Experiments:
[1] = Stability constants of competing chelators for Zn(II) (NIST / Sillen-Martell; log Kapp by Eq. 1-2); details: for log Kapp of comparison chelators for Zn(II): comparison chelators of b563
From the text: log Kapp=log K-log α (Eq. 1)
α=[H^+]^n/(Ka1×Ka2×Ka3× . . . Kan)+[H^+]^n-1/(Ka1×Ka2×Ka3× . . . Kan-1)+ . . . +[H^+]/Ka1+1 (Eq. 2)

[2] = UV-visible spectrophotometric titration with CuCl2 (metal/ligand stoichiometry); format: binding; details: 15 μM ligand; Tris-HCl buffer pH 7.4/organic solvent, per ligand as in Table 3 column Solvent
Experimental: (§1) An organic solvent (CH3OH, dioxane or DMSO) was added in order to achieve good solubility of the ligands and metal complexes in the concentrations used in these experiments. Exact proportions of the organic solvent/buffer mixture are specified for each UV-visible characterisation of the different ligands or metal complexes.
(§2) Aliquot portions of concentrated CuCl2 or ZnCl2 solutions (M) are added to a 15 μM ligand solution so as to induce only negligible variations in volume. After each addition, changes in absorption spectra are observed immediately and are consistent between two additions, which corresponds to a rapid complexing process. The exact absorption values relating to each ligand and the copper(II) or zinc(II) complexes thereof are detailed hereinafter in the Experimental part (in the Synthesis part for ligands and hereinafter for the metal complexes).
(§3) The stoichiometry of the different ligands (L) for Cu(II) or ZN(II) have therefore been determined spectrophotometrically by metal ion titration. In this example, for an M/L ratio increasing from 0 to 1, π→π* with transition, centred at 251 nm for the free ligand, is shifted to a lower energy with a concomitant appearance of an absorption band in the visible region of the spectrum (λmax to 383 nm), which is probably the result of an MLCT transition. For greater M/L ratios, no additional change in the UV-visible absorption spectra is observed.

[3] = UV-visible spectrophotometric titration with ZnCl2 (metal/ligand stoichiometry); format: binding; details: 15 μM ligand; Tris-HCl buffer pH 7.4/organic solvent, per ligand as in Table 3 column Solvent
Experimental: as §1, §2, §3

[4] = Competition reaction between ligand (Ls), ZnCl2 and competing chelator (Lc), UV-visible; affinity constants; format: binding; details: Ls/ZnCl2/Lc 1/1/1 at 15 μM; solvent per ligand as in Table 3
Experimental: An organic solvent (CH3OH, dioxane or DMSO) was added in order to achieve good solubility of all the ligands and metal complexes in the concentrations used in these experiments.
As the concentration [MLs]=x % of C is measured on the UV-visible spectra, the concentrations [Ls]=(1−x) % of C, [MLc]=(1−x) % of C and [Lc]=x % of C can be deduced therefrom and:
In these conditions, [MLs]=[MLc]; [MLs]+[Lc]=Y, y≧50 and:
When log Ks 6, these equations are not used since the percentages of metal ion which is free in the solution or chelated by the solvent or the buffer are not negligible.

Aβ1-42 = biological target: T1, Aβ1-42 (Homo sapiens, UniProt P05067); assay: Inhibition of the precipitation of Aβ1-42 by the addition of ligand (Micro BCA assay of soluble/aggregated peptide); format: biochemical; details: Aβ1-42 5 μM, pH 7.4; for CuCl2 % soluble Aβ: 20 μM CuCl2, 1 h 37° C. then 1 h with 200 μM ligand; for FeCl3 % soluble Aβ: 20 μM FeCl3, 1 h 37° C. then 1 h with 200 μM ligand; for ZnCl2 % soluble Aβ: 20 μM ZnCl2, 1 h 37° C. then 1 h with 200 μM ligand; for without metal % soluble Aβ: no metal salt, 1 h 37° C. then 1 h with 200 μM ligand
T1 construct: The β-amyloid peptide Aβ1-42 (Aβ1-42) was synthesised, purified (to a purity greater than 95%); made in house; host or cells: chemical peptide synthesis (no expression host)
T1 sequence (P05067 672-713): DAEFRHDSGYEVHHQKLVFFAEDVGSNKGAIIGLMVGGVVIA
Experimental: After a further hour of incubation, the reaction mixture is centrifuged.
Before use, the water [of Milli-Q Millipore quality] and all buffer solutions were treated on Chelex-100 resin (Biorad) (5 mg/ml) and filtered through 0.2 μm filters (Whatman) to remove potential traces of metal ions or particles.
Working solutions of the peptide were prepared by solubilising 1 mg of lyophilised peptide in 500 μl of water and 500 μl of an aqueous NaOH solution pH=12.0, while stirring in a Thermomixer Comfort (Eppendorf). The peptide preparations are subsequently centrifuged for 10 minutes at 9,000 rpm and the supernatant is used as an “Aβ stock” solution. The concentration of peptide in the “Aβ stock” is determined immediately by colorimetric assay using a Micro BCA Protein Assays kit (Pierce) from standard ranges produced using known amounts of bovine serum albumin (BSA) then the Aβ1-42 peptide solution is aliquoted and frozen rapidly in liquid nitrogen prior to being stored at −20° C. until being used.
Salts are generated by adding one hydrochloric acid equivalent per nitrogen group equivalent of the ligand dissolved in DMSO. After evaporation of the solvent, these salts are dissolved at the desired concentration with DMSO and kept at −20° C. until they are used.
The protocol was established from works by: C. S. Atwood et al., J. Neurochem. […] The final concentrations are given. 500 μl of Aβ1-42 (5 μM is set to aggregate in 20 mM Tris-HCl buffer containing 150 mM NaCl (pH=7.4) for 1 hour at 37° C. while stirring at 1,400 rpm in the absence or presence of metal ions: CuCl2, ZnCl2 or FeCl3 (20 μM). Then 50 pi of ligand to be tested (200 μM) dissolved in DMSO are added and the samples are incubated for 1 further hour at 37° C. while stirring at 1,400 rpm. The samples without ligand also receive 50 μl of DMSO. The samples (final volume=550 μ) are subsequently centrifuged for 20 min at 9,000 rpm, and 500 μl of supernatant are removed. The tube containing the precipitation pellet then receives 450 μl of assay buffer/DMSO mixture (91/9, v/v). […] Quantification is carried out on the basis of standard BSA ranges. The amounts of Aβ1-42 actually contained in the pellet and the supernatant are obtained after a correction due to the presence of a residual portion of supernatant in the pellet-containing fraction.
For the control experiments with derivatives comprising a single quinoline residue, […] of ligand were added because complexes of type L2Cu are conventionally used in these cases.

[5] = Hydrogen peroxide produced by Aβ1-42 in the presence of CuCl2, ascorbate, air and ligand (Amplex Red H2O2/HRP); format: biochemical; details: ligand 1 eq/Cu(II) (0.4 μM); CuCl2 0.4 μM, ascorbate 10 μM, air
Experimental: (§4) FIG. 11: Variation in H2O2 production by copper complexes of Aβ1-42 peptide as a function of the Cu(II)/Aβ stoichiometry. Experiments are carried out for 5 minutes in a sodium phosphate buffer (pH=7.4) in the presence 0.4 μM CuCl2, 10 μM ascorbate and air with or without 0.4 μM of 3 or 7. The H2O2 released is quantified by means of an Amplex-Red H2O2/HRP Assay kit.
(§5) The final concentrations are given. The reactions were carried out in the dark in mM sodium phosphate buffer (pH=7.4). Aβ1-42 (0.2 μM) and CuCl2 (0.4 μM) were pre-incubated for 1 hour at 37° C. while stirring at 1,400 rpm in 375 μl of buffer. Then 2 μl of a solution of ligand to be investigated (0.2; 0.4 or 0.8 μM) in DMSO were added. After incubation for a further hour, 2 μl of an aqueous sodium ascorbate solution (10 μM) were added and incubation was continued for 5 min while stirring. The amount of H2O2 produced is then quantified using an Amplex Red H2O2/HRP Assay Kit (Molecular Probes) while adding a volume of assay reagent to the samples, then incubating them for 1 hour at 37° C. while stirring at 500 rpm. […] Quantification is carried out on the basis of standard curves obtained with known amounts of H2O2.
(§6) The figures in the tables correspond to the amount of H2O2 (expressed in nanomoles) added using an Amplex Red H2O2/HRP Assay kit.

[6] = biological target: T2, copper complexes of Aβ1-42 peptide (Homo sapiens, UniProt P05067); assay: as above; format: biochemical; details: for amount of H2O2, 0.2 μM Aβ1-42 Cu/Aβ = 2 / amount of H2O2, 0.5 μM Aβ1-42 Cu/Aβ = 0.75: ligand 1 eq/Cu(II) (0.4 μM), CuCl2 0.4 μM, ascorbate 10 μM, air
T2 construct: The β-amyloid peptide Aβ1-42 (Aβ1-42) was synthesised, purified (to a purity greater than 95%); made in house; host or cells: chemical peptide synthesis (no expression host)
T2 sequence (P05067 672-713 limits assumed, one chain of several): as the sequence (P05067 672-713) above
Experimental: as §4, §5, §6

[7] = Determination of log D7.4 (1-octanol / Tris-HCl buffer); format: physicochemical; details: 1-octanol / 20 mM Tris-HCl buffer containing 150 mM NaCl (pH = 7.4) (1/1, v/v)
Experimental: The ligand (2.0 mg) is dissolved in 2 ml of 1-octanol then 2 ml of 20 mM Tris-HCl buffer, pH=7.4 containing 150 mM NaCl are added. After mixing in a vortex for 3 min at ambient temperature, followed by centrifugation for 5 min at 9,000 rpm, the concentration of the ligand in each phase is determined by UV-visible spectrophotometry. The 1-octanol fractions are thus redivided until reproducible values of coefficient of division of obtained. This coefficient is expressed as the decimal logarithm of [(the concentration of ligand contained in the 1-octanol phase)/(the concentration of ligand contained in the buffered aqueous phase)]=log D7.4. Measurements were taken three times.

[8] = Competition reaction between ligand (Ls), CuCl2 and competing chelator (Lc), UV-visible; affinity constants
Experimental: An organic solvent (CH3OH, dioxane or DMSO) was added in order to achieve good solubility of all the ligands and metal complexes in the concentrations used in these experiments. Monitoring has shown that all the ligands and metal complexes examined yield results corresponding to the Beer-Lambert Law in the experimental conditions used.
Lc competing chelators were selected to provide a range of stability constants for the metal ion M presenting intervals of approximately one or two log units, as well as to make it possible for each competition experiment to quantify one of the Ls, MLs, Lcc or MLc species with a UV-vis spectrum wavelength without contaminating the three other species (FIG. 7). […] As the concentration [MLs]=x % of C is measured on the UV-visible spectra, the concentrations [Ls]=(1−x) % of C, [MLc]=(1−x) % of C and [Lc]=x % of C can be deduced therefrom and:

[9] = Number of ZnCl2 equivalents for the ligand to be entirely in the form of Zn(II) complex; format: binding; details: competition with the tris buffer and the DMSO
[10] = Stability constants of competing chelators for Cu(II) (NIST / Sillen-Martell; log Kapp by Eq. 1-2); format: binding; details: at pH = 7.4, by Eq. 1 and 2
From the text: Department of Commerce) and […]

[11] = 25° C., cited from earlier work; for log K1 (stability constant for the MLc species), Cu(II): ionic strength 0.1-0.2, metal ion to chelator 1/1; for log K2 (stability constant for the M(Lc)2 species), Cu(II): ionic strength 0.1-0.2
[12] = Ls/CuCl2/Lc 1/1/1 at 15 μM, solvent per ligand as in Table 3
[13] = mixture of Ls (15 μM, 1 equivalent) and CuCl2 (1/1, mol/mol)

Structure (SMILES)	Complex observed by titration with Cu^II (observed L/Cu(II) stoichiometry) [2]	Complex observed by titration with Zn^II (observed L/Zn(II) stoichiometry) [3]	percentage of ZnLs species at equilibrium, competing ligand EDTA [4]	CuCl2 % soluble Aβ (Aβ1-42)	FeCl3 % soluble Aβ (Aβ1-42)	ZnCl2 % soluble Aβ (Aβ1-42)	without metal % soluble Aβ (Aβ1-42)	amount of H2O2, without Aβ1-42 [5]	amount of H2O2, 0.2 μM Aβ1-42 Cu/Aβ = 2 [6]	amount of H2O2, 0.5 μM Aβ1-42 Cu/Aβ = 0.75 [6]	percentage of the CuLs species at equilibrium, competing ligand EDTA [8, 12]	log K1 app, Cu(II) [10]	log K2 (stability constant for the M(Lc)2 species), Cu(II) [11]	further results
O=C(O)CN(CCOCCOCCN(CC(=O)O)CC(=O)O)CC(=O)O [EGTA, ethylenebis(oxyethylenenitrilo)-tetraacetic acid]	–	–	–	–	–	–	–	–	–	–	–	–	–	log K1 app, Zn(II) ([1]; at pH = 7.4, by Eq. 1 and 2): 9.4
Oc1c(I)cc(Cl)c2ccc(CCc3ccc4c(Cl)cc(I)c(O)c4n3)nc12 [Compound 9, 2,2′-(1,2-Ethanediyl)-bis(5-chloro-7-iodo-8-hydroxyquinoline)]	LCu^II(1/1)	LZn^II(1/1)	65%	19%	38%	47%	36%	0.66 nmol	0.82 ± 0.08 nmol	0.82 nmol	60%	–	–	percentage of ZnLs species at equilibrium, competing ligand NTA [4]: 100%; percentage of ZnLs species at equilibrium, competing ligand Trien [4]: 100%; logD at 3 min [7]: 5.6 ± 0.5; percentage of the CuLs species at equilibrium, competing ligand Dien [8, 12]: 100%; percentage of the CuLs species at equilibrium, competing ligand Tetren [8, 12]: 0%; percentage of the CuLs species at equilibrium, competing ligand Trien [8, 12]: 45%; number of Lc equivalents making it possible to form 50% of CuLs, Lc = Trien [8, 13]: 0.75 eq
c1ccc(-c2ccccn2)nc1 [biPy, 2,2′-bipyridine]	–	–	–	–	–	–	–	–	–	–	–	8.1	5.5	number of ZnCl2 equivalent for 15 μM of ligand to be entirely in the form of Zn(II) complex [9]: 250 eq ZnCl2; log K1 (stability constant for the MLc species), Cu(II) [11]: 8.1; log Kapp of comparison chelators for Zn(II) [1]: ≈ 5
NCCN [EDA, ethylenediamine]	–	–	–	–	–	–	–	–	–	–	–	7.8	9.1	–
NCCNCCN [Dien, diethylenetriamine]	–	–	–	–	–	–	–	–	–	–	–	11.8	5.0	–
Oc1ccc(Cl)c2ccc(CCc3ccc4c(Cl)ccc(O)c4n3)nc12 [Compound 8, 2,2′-(1.2-Ethanediyl)-bis(5-chloro-8-hydroxyquinoline 8)]	LCu^II(1/1)	LZn^II(1/1)	30%	36%	41%	58%	59%	0.66 nmol	0.89 ± 0.09 nmol	0.64 nmol	40%	–	–	log D7.4 [7]: 4.2 ± 0.1; number of Lc equivalents making it possible to form 50% of CuLs, Lc = EDTA [8, 13]: 0.65 eq
Oc1cccc2ccc(CCc3ccc4cccc(O)c4n3)nc12 [Compound 7, 2,2′-(1,2-Ethanediyl)-bis(8-hydroxyquinoline)]	LCu^II(1/1)	LZn^II(1/1)	55%	35%	40%	60%	59%	0.75 nmol	0.89 ± 0.07 nmol	0.68 nmol	55%	–	–	H2O2 production as a function of the Cu/Aβ1-42 ratio ([6]; FIG. 11, 1 equivalent of ligand per Cu(II) (0.4 μM), Aβ1-42 0.2 to 0.53 μM): virtually inhibit H2O2 production; logD at 3 min [7]: 3.5 ± 0.1; number of Lc equivalents making it possible to form 50% of CuLs, Lc = EDTA [8, 13]: 1.1 eq
c1cnc2c(c1)ccc1cccnc12 [1,10-phenanthroline]	–	–	–	–	–	–	–	–	–	–	–	–	–	number of ZnCl2 equivalent for 15 μM of ligand to be entirely in the form of Zn(II) complex [9]: 50 eq ZnCl2; log Kapp of comparison chelators for Zn(II) [1]: 6.3
O=C(O)CN(CCO)CC(=O)O [HIDA, N-(2-hydroethyl)iminodiacetic acid]	–	–	–	–	–	–	–	–	–	–	–	10.5	–	log K1 (stability constant for the MLc species), Cu(II) [11]: 11.8
